# Data published in PubChem BioAssay AID292 (DTP/NCI, 2004).
# “And” between values parts separate entries of the source, which are not always exact repeats. Equal entries are not always repeated. Toxic doses and inconclusive results are not listed.
# Tested on: B6C3F1 mice, ip Sarcoma M5076, median survival T/C
# Experiment: NCI In Vivo Anticancer Drug Screen. Data for tumor model Sarcoma M5076 (intraperitoneal) in B6C3F1 mice
# Details: endpoint: median survival time, schedule: Q04DX004 (ip), higher = longer survival
# Procedure, shortened: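 Survival measured in treated (T) and vehicle control (C) mice with transplantable tumour; result given as T divided by C.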
# [1] = dose: 50.0 mg/kg/injection, vehicle: saline
# [2] = dose: 50.0 mg/kg/injection, vehicle: suspension in saline
# [3] = dose: 100.0 mg/kg/injection, vehicle: saline
# [4] = dose: 100.0 mg/kg/injection, vehicle: suspension in saline
# [5] = dose: 200.0 mg/kg/injection, vehicle: saline
# [6] = dose: 200.0 mg/kg/injection, vehicle: suspension in saline
# [7] = dose: 25.0 mg/kg/injection, vehicle: Klucel (hydroxypropylcellulose) (HPC)
# [8] = dose: 50.0 mg/kg/injection, vehicle: Klucel (hydroxypropylcellulose) (HPC)
# [9] = dose: 100.0 mg/kg/injection, vehicle: Klucel (hydroxypropylcellulose) (HPC)
# [10] = dose: 200.0 mg/kg/injection, vehicle: Klucel (hydroxypropylcellulose) (HPC)
# [11] = dose: 400.0 mg/kg/injection, vehicle: Klucel (hydroxypropylcellulose) (HPC)
# [12] = dose: 25.0 mg/kg/injection, vehicle: saline
# [13] = dose: 25.0 mg/kg/injection, vehicle: suspension in saline
# [14] = dose: 50.0 mg/kg/injection, vehicle: saline with Tween-80
# [15] = dose: 100.0 mg/kg/injection, vehicle: saline with Tween-80
# [16] = dose: 200.0 mg/kg/injection, vehicle: saline with Tween-80
# [17] = dose: 400.0 mg/kg/injection, vehicle: saline with Tween-80
# [18] = dose: 37.5 mg/kg/injection, vehicle: saline with Tween-80
# [19] = dose: 75.0 mg/kg/injection, vehicle: saline with Tween-80
# [20] = dose: 150.0 mg/kg/injection, vehicle: saline with Tween-80
# [21] = dose: 300.0 mg/kg/injection, vehicle: saline with Tween-80
smiles,measurement,setting,value
N=C(N)SCc1cccc2c(=O)cc(-c3ccccc3)oc12,T/C,[1],98 % of control
same,T/C,[2],114 % of control
same,T/C,[3],102 % of control
same,T/C,[4],104 % of control
same,T/C,"dose: 144.0 mg/kg/injection, vehicle: suspension in saline",105 % of control and 112 % of control
same,T/C,[5],106 % of control
same,T/C,[6],104 % of control
same,T/C,"dose: 240.0 mg/kg/injection, vehicle: suspension in saline",101 % of control and 109 % of control
same,T/C,"dose: 400.0 mg/kg/injection, vehicle: saline",102 % of control
same,T/C,"dose: 666.67 mg/kg/injection, vehicle: suspension in saline",101 % of control
same,T/C,"dose: 1111.11 mg/kg/injection, vehicle: suspension in saline",100 % of control
O=C1c2c(O)cccc2-c2nn(CCNCCO)c3ccc(NCCNCCO)c1c23,T/C,"dose: 2.75 mg/kg/injection, vehicle: water",169 % of control
same,T/C,"dose: 5.5 mg/kg/injection, vehicle: water",233 % of control and 263 % of control
same,T/C,"dose: 11.0 mg/kg/injection, vehicle: water",243 % of control
same,T/C,"dose: 22.0 mg/kg/injection, vehicle: water",109 % of control
CC1=CC(C)C(O)C(C)/C=C/C(O)C/C=C(/C)C(=O)CC(O)C(C)\C=C/C=C/C=C\C(=O)NC2=C(O)c3cc(C)c(O)c(c3C(=O)C2=O)C1=O (centres undefined),T/C,"dose: 1.25 mg/kg/injection, vehicle: Klucel (hydroxypropylcellulose) (HPC)",109 % of control
same,T/C,"dose: 2.5 mg/kg/injection, vehicle: Klucel (hydroxypropylcellulose) (HPC)",97 % of control
same,T/C,"dose: 5.0 mg/kg/injection, vehicle: Klucel (hydroxypropylcellulose) (HPC)",102 % of control
same,T/C,"dose: 10.0 mg/kg/injection, vehicle: Klucel (hydroxypropylcellulose) (HPC)",102 % of control
same,T/C,[7],98 % of control
N#CC1C(=O)NC(=O)C(C#N)C1c1cccc(O)c1 (centres undefined),T/C,[8],95 % of control
same,T/C,[9],102 % of control
same,T/C,[10],99 % of control
same,T/C,[11],95 % of control
same,T/C,"dose: 800.0 mg/kg/injection, vehicle: Klucel (hydroxypropylcellulose) (HPC)",109 % of control
[N-]=[N+]=NCc1cnnn1C1OC(CO)C(O)C1O (centres undefined),T/C,"dose: 37.5 mg/kg/injection, vehicle: saline",104 % of control
same,T/C,"dose: 75.0 mg/kg/injection, vehicle: saline",103 % of control
same,T/C,"dose: 150.0 mg/kg/injection, vehicle: saline",104 % of control
same,T/C,"dose: 300.0 mg/kg/injection, vehicle: saline",107 % of control
same,T/C,"dose: 600.0 mg/kg/injection, vehicle: saline",103 % of control
C/C(=N\NC(=O)c1ccccc1O)c1cccc(/C(C)=N/NC(=O)c2ccccc2O)n1,T/C,[12],88 % of control
same,T/C,[13],108 % of control
same,T/C,[1],88 % of control
same,T/C,[4],116 % of control
CCN(CC)CCCC(C)Nc1c2ccc(Cl)cc2nc2ccc(OC)cc12 (centres undefined),T/C,[12],111 % of control
same,T/C,[1],115 % of control
same,T/C,[3],112 % of control
same,T/C,[5],91 % of control
CN1C2C=CC(=O)C1C1C(=O)N(c3ccccc3)C(=O)C12 (centres undefined),T/C,[8],102 % of control
same,T/C,[9],96 % of control
same,T/C,[10],118 % of control
O=C(Nc1cc(Cl)ccc1C(=O)O)c1cccc(C[n+]2ccccc2)c1,T/C,[14],100 % of control
same,T/C,[15],104 % of control
same,T/C,[16],95 % of control
same,T/C,[17],88 % of control
O=C1[C@@H]2C3C=CC([C@H]4C(=O)N(CO)C(=O)[C@@H]34)[C@@H]2C(=O)N1CO,T/C,[9],102 % of control
same,T/C,[10],102 % of control
same,T/C,[11],98 % of control
O=c1/c(=C\C=C\c2ccccc2)sc2n1CCN=2,T/C,[14],95 % of control
same,T/C,[15],99 % of control
same,T/C,[16],91 % of control
same,T/C,[17],99 % of control
CN(C)CCCN=c1c2ccccc2n(C)c2[nH]c(=O)n(C)c(=O)c12,T/C,"dose: 7.5 mg/kg/injection, vehicle: saline",101 % of control
same,T/C,"dose: 15.0 mg/kg/injection, vehicle: saline",99 % of control
same,T/C,"dose: 30.0 mg/kg/injection, vehicle: saline",102 % of control
CCOC(=O)Nc1cc2c(c(N)n1)N=C(c1ccccc1)CO2,T/C,[14],101 % of control
same,T/C,[15],107 % of control
same,T/C,[16],109 % of control
same,T/C,[17],105 % of control
COC1CC2C=C(C)/C=C/C=C/C(=O)NC(c3ccccc3)C/C=C/CCC(O)CC(=O)C2=C1O (centres undefined),T/C,"dose: 3.12 mg/kg/injection, vehicle: Klucel (hydroxypropylcellulose) (HPC)",112 % of control
same,T/C,"dose: 6.25 mg/kg/injection, vehicle: Klucel (hydroxypropylcellulose) (HPC)",118 % of control
same,T/C,"dose: 12.5 mg/kg/injection, vehicle: Klucel (hydroxypropylcellulose) (HPC)",110 % of control
same,T/C,[7],123 % of control
O=c1[nH]cnc2n[nH]nc12,T/C,"dose: 75.0 mg/kg/injection, vehicle: Klucel (hydroxypropylcellulose) (HPC)",104 % of control
same,T/C,"dose: 150.0 mg/kg/injection, vehicle: Klucel (hydroxypropylcellulose) (HPC)",94 % of control
same,T/C,"dose: 300.0 mg/kg/injection, vehicle: Klucel (hydroxypropylcellulose) (HPC)",97 % of control
same,T/C,"dose: 600.0 mg/kg/injection, vehicle: Klucel (hydroxypropylcellulose) (HPC)",95 % of control
CCOc1c2c(nn(C)c1=O)Oc1ccccc1N2CCCN1CCOCC1,T/C,"dose: 7.5 mg/kg/injection, vehicle: saline with Tween-80",92 % of control
same,T/C,"dose: 15.0 mg/kg/injection, vehicle: saline with Tween-80",106 % of control
same,T/C,"dose: 30.0 mg/kg/injection, vehicle: saline with Tween-80",113 % of control
same,T/C,"dose: 60.0 mg/kg/injection, vehicle: saline with Tween-80",97 % of control
CCC1(O)C(=O)OCc2c1cc1n(c2=O)Cc2cc3cc(N)ccc3nc2-1 (centres undefined),T/C,"dose: 7.5 mg/kg/injection, vehicle: suspension in saline",160 % of control
same,T/C,"dose: 9.0 mg/kg/injection, vehicle: suspension in saline",174 % of control
same,T/C,"dose: 15.0 mg/kg/injection, vehicle: suspension in saline",170 % of control and 231 % of control
same,T/C,[13],150 % of control
same,T/C,"dose: 42.0 mg/kg/injection, vehicle: suspension in saline",90 % of control
CNc1ncn(-c2c(C)cccc2C)c(=O)n1,T/C,"dose: 4.69 mg/kg/injection, vehicle: saline with Tween-80",98 % of control
same,T/C,"dose: 9.38 mg/kg/injection, vehicle: saline with Tween-80",109 % of control
same,T/C,"dose: 18.75 mg/kg/injection, vehicle: saline with Tween-80",110 % of control
same,T/C,[18],109 % of control
same,T/C,[19],100 % of control and 105 % of control and 115 % of control
same,T/C,[20],99 % of control
same,T/C,[21],100 % of control
same,T/C,"dose: 600.0 mg/kg/injection, vehicle: saline with Tween-80",99 % of control
Nc1nc2n[nH]nc2c(=O)[nH]1,T/C,[2],118 % of control
same,T/C,[6],123 % of control
CCn1c2ccc(N)cc2c2c3ncc4cccn4c3ccc21,T/C,[18],101 % of control
same,T/C,[19],94 % of control
same,T/C,[20],97 % of control
same,T/C,[21],89 % of control
Cc1ccc(C)c(NC(=O)C2C(=O)C(=O)N(c3cc(C)ccc3C)C2=O)c1 (centres undefined),T/C,[8],102 % of control
same,T/C,[9],100 % of control
same,T/C,[10],108 % of control
same,T/C,[11],105 % of control
